Measured values: article PMC4829572, “Purification and characterization of endo β-1,4-D-glucanase from Trichoderma harzianum strain HZN11 and its application in production of bioethanol from sweet sorghum bagasse” (3 Biotech, 2016)

Biological target: T1, endo β-1,4-D-glucanase
T1 construct: gene egl1; native secreted enzyme purified from solid state culture (ammonium sulfate, DEAE-Sepharose, Sephadex G-100); ~55 kDa on SDS-PAGE, monomer
Assay: inhibition of CMC hydrolysis, DNS reducing sugar assay, Lineweaver-Burk plot
Format: biochemical, Trichoderma harzianum
Settings: competitive; substrate carboxymethyl cellulose; cellobiose 5 and 10 mM
Source text: inhibition of CMC hydrolysis, DNS reducing sugar assay, Lineweaver-Burk plot on endo β-1,4-D-glucanase | cellobiose to be competitive inhibitor of endo β-1,4-D-glucanase in the presence of CMC substrate

Ki: 66 mM
Structure (SMILES): OC[C@H]1O[C@@H](O[C@H]2[C@H](O)[C@@H](O)C(O)O[C@@H]2CO)[C@H](O)[C@@H](O)[C@@H]1O (stereo partly shown) [cellobiose]
